These results are taken from BigSolDB 2.1.

SMILES strings stand for the structures.

The term solubility (mole fraction) denotes the moles of solute divided by all moles in the saturated solution. With `O=C(/C=C/c1ccc(-c2cccc([N+](=O)[O-])c2)o1)c1ccc(Cl)cc1`, the solubility (mole fraction) runs as follows: (in 1,4-dioxane, 298.15 K) 0.00271; (in 1,4-dioxane, 303.15 K) 0.00272; (in 1,4-dioxane, 308.15 K) 0.00277; (in 1,4-dioxane, 313.15 K) 0.00282; (in 1,4-dioxane, 318.15 K) 0.00284; (in DMF, 298.15 K) 0.0045. For the same compound, the solubility (mole fraction) reads like this: (in DMF, 303.15 K) 0.0046; (in DMF, 308.15 K) 0.00468; (in DMF, 313.15 K) 0.0047; (in DMF, 318.15 K) 0.0048.

For `Nc1ccc(C(=O)/C=C/c2ccc(-c3cccc([N+](=O)[O-])c3)o2)cc1`, the solubility (mole fraction) runs as follows: (in 1,4-dioxane, 298.15 K) 0.00245; (in 1,4-dioxane, 303.15 K) 0.00248; (in 1,4-dioxane, 308.15 K) 0.0025; (in 1,4-dioxane, 313.15 K) 0.00252; (in 1,4-dioxane, 318.15 K) 0.00255; (in DMF, 298.15 K) 0.00264. Moreover, the solubility (mole fraction) runs as follows: (in DMF, 303.15 K) 0.00264; (in DMF, 308.15 K) 0.00264; (in DMF, 313.15 K) 0.00264; (in DMF, 318.15 K) 0.00264.

For `O=C(/C=C/c1ccc(-c2cccc([N+](=O)[O-])c2)o1)c1ccc2ccc(=O)oc2c1`, the solubility (mole fraction) (in 1,4-dioxane, 298.15 K) was 0.00617; the solubility (mole fraction) (in 1,4-dioxane, 303.15 K) came to 0.00623; the solubility (mole fraction) (in 1,4-dioxane, 308.15 K) is 0.00622; the solubility (mole fraction) (in 1,4-dioxane, 313.15 K) was 0.00624; the solubility (mole fraction) (in 1,4-dioxane, 318.15 K) stood at 0.00628; the solubility (mole fraction) (in DMF, 298.15 K) was found to be 0.00696. The solubility (mole fraction) (in DMF, 303.15 K) amounted to 0.007; the solubility (mole fraction) (in DMF, 308.15 K) turned out to be 0.0071; the solubility (mole fraction) (in DMF, 313.15 K) worked out at 0.0072; the solubility (mole fraction) (in DMF, 318.15 K) was found to be 0.00721.

Take `O=C(/C=C/c1ccc(-c2cccc([N+](=O)[O-])c2)o1)c1ccccc1`: the solubility (mole fraction) by setting is: (in 1,4-dioxane, 298.15 K) 0.00553; (in 1,4-dioxane, 303.15 K) 0.0056; (in 1,4-dioxane, 308.15 K) 0.00565; (in 1,4-dioxane, 313.15 K) 0.00571; (in 1,4-dioxane, 318.15 K) 0.00573; (in DMF, 298.15 K) 0.00983. Also, the solubility (mole fraction) reads like this: (in DMF, 303.15 K) 0.0099; (in DMF, 308.15 K) 0.00998; (in DMF, 313.15 K) 0.0101; (in DMF, 318.15 K) 0.0101.

Consider `O=C(/C=C/c1ccc(-c2cccc([N+](=O)[O-])c2)o1)c1ccc([N+](=O)[O-])cc1`, for which the solubility (mole fraction) is, setting by setting: (in 1,4-dioxane, 298.15 K) 0.00229; (in 1,4-dioxane, 303.15 K) 0.00232; (in 1,4-dioxane, 308.15 K) 0.00239; (in 1,4-dioxane, 313.15 K) 0.00241; (in 1,4-dioxane, 318.15 K) 0.00245; (in DMF, 298.15 K) 0.00237. Besides, the solubility (mole fraction) by setting is: (in DMF, 303.15 K) 0.0024; (in DMF, 308.15 K) 0.00244; (in DMF, 313.15 K) 0.00245; (in DMF, 318.15 K) 0.00248.

`O=C(/C=C/c1ccc(-c2cccc([N+](=O)[O-])c2)o1)c1ccc(Br)cc1` came in with a solubility (mole fraction) (in 1,4-dioxane, 298.15 K) of 0.00489; a solubility (mole fraction) (in 1,4-dioxane, 303.15 K) of 0.00491; a solubility (mole fraction) (in 1,4-dioxane, 308.15 K) of 0.00495; a solubility (mole fraction) (in 1,4-dioxane, 313.15 K) of 0.00501; a solubility (mole fraction) (in 1,4-dioxane, 318.15 K) of 0.00501; a solubility (mole fraction) (in DMF, 298.15 K) of 0.00705. Besides, the solubility (mole fraction) reads like this: (in DMF, 303.15 K) 0.0071; (in DMF, 308.15 K) 0.00714; (in DMF, 313.15 K) 0.00722; (in DMF, 318.15 K) 0.00726.

`O=C(/C=C/c1ccc(-c2cccc([N+](=O)[O-])c2)o1)CO` showed a solubility (mole fraction) (in 1,4-dioxane, 298.15 K) of 0.00705; a solubility (mole fraction) (in 1,4-dioxane, 303.15 K) of 0.00707; a solubility (mole fraction) (in 1,4-dioxane, 308.15 K) of 0.0071; a solubility (mole fraction) (in 1,4-dioxane, 313.15 K) of 0.00711; a solubility (mole fraction) (in 1,4-dioxane, 318.15 K) of 0.00714; a solubility (mole fraction) (in DMF, 298.15 K) of 0.0094. Also, the solubility (mole fraction) turned out to be 0.00945 (in DMF, 303.15 K); 0.0095 (in DMF, 308.15 K); 0.0095 (in DMF, 313.15 K); 0.00959 (in DMF, 318.15 K).

Take `O=C(/C=C/c1ccc(-c2cccc([N+](=O)[O-])c2)o1)c1ccc(O)cc1`: the solubility (mole fraction) came out at 0.00573 (in 1,4-dioxane, 298.15 K); 0.0058 (in 1,4-dioxane, 303.15 K); 0.00581 (in 1,4-dioxane, 308.15 K); 0.00591 (in 1,4-dioxane, 313.15 K); 0.00592 (in 1,4-dioxane, 318.15 K); 0.00665 (in DMF, 298.15 K). Moreover, the solubility (mole fraction) is, setting by setting: (in DMF, 303.15 K) 0.0067; (in DMF, 308.15 K) 0.00675; (in DMF, 313.15 K) 0.0068; (in DMF, 318.15 K) 0.00692.

Regarding `O=C(/C=C/c1ccc(-c2cccc([N+](=O)[O-])c2)o1)c1cccc([N+](=O)[O-])c1`, the solubility (mole fraction) by setting is: (in 1,4-dioxane, 298.15 K) 0.00596; (in 1,4-dioxane, 303.15 K) 0.00601; (in 1,4-dioxane, 308.15 K) 0.00602; (in 1,4-dioxane, 313.15 K) 0.00605; (in 1,4-dioxane, 318.15 K) 0.00608; (in DMF, 298.15 K) 0.00604. Besides, the solubility (mole fraction) amounted to 0.0061 (in DMF, 303.15 K); 0.00614 (in DMF, 308.15 K); 0.0062 (in DMF, 313.15 K); 0.0062 (in DMF, 318.15 K).

Consider `COc1ccc(C(=O)/C=C/c2ccc(-c3cccc([N+](=O)[O-])c3)o2)cc1`, for which the solubility (mole fraction) amounted to 0.00732 (in 1,4-dioxane, 298.15 K); 0.00733 (in 1,4-dioxane, 303.15 K); 0.00737 (in 1,4-dioxane, 308.15 K); 0.00742 (in 1,4-dioxane, 313.15 K); 0.00744 (in 1,4-dioxane, 318.15 K); 0.0112 (in DMF, 298.15 K). The solubility (mole fraction) is, setting by setting: (in DMF, 303.15 K) 0.0112; (in DMF, 308.15 K) 0.0113; (in DMF, 313.15 K) 0.0113; (in DMF, 318.15 K) 0.0114.
